This is an account of results in US10351547B2, “Somatostatin modulators and uses thereof” (priority 2016, dated 2019).

human SSTR2, sequence (P30874 whole entry): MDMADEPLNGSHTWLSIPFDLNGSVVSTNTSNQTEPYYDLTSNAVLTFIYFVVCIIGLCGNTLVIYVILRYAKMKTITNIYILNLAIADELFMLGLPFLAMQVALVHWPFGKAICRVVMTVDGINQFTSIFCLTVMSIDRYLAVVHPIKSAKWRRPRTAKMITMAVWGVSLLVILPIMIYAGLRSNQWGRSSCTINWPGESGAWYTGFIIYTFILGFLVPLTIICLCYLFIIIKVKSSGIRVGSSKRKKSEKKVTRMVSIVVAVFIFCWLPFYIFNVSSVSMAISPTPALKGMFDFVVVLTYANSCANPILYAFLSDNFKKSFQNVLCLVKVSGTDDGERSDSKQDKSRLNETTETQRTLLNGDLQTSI

One assay concerns the target human SSTR2 (Homo sapiens (Human), UniProt P30874). The assay is described as follows: Human SSTR2 intracellular cAMP functional assay for agonists (HTRF). It is filed as cell-based.
Settings: not given
The protocol:
Functional Assay for SSTR2 Agonists
General overview: All five SSTR subtypes are Gi coupled G-protein coupled receptors (GPCRs) that lead to decreases in intracellular cyclic AMP (cAMP) when activated by an agonist. […] Human SSTR2 intracellular cAMP assay is described below. The human SSTR1, 3, 4 and 5 assays follow the same protocol of SSTR2.
The cells are cultured at 37° C., 5% CO2 and 95% humidity. […] The cells are incubated for 20 minutes at 37° C. […] The cells are treated with 50 μL of lysis buffer (HRTF cAMP kit, Cisbio). […] The time-resolved fluorescent signal is read with a Tecan M1000Pro multiplate reader. The intracellular cAMP concentrations are calculated by regression to a standard curve and are plotted vs. the concentration of the compounds of the invention and the EC50 of the compounds are calculated using standard methods. All data manipulations are in GraphPad Prism v6.
On the technique in general: TR-FRET usually uses a lanthanide donor and a delayed reading to cut background.
For `Cc1cc(C)cc(-c2nnc3cc(Cl)c(Cl)cc3c2N2CCC(N)CC2)c1` [1-3, 1-[6,7-dichloro-3-(3,5-dimethylphenyl)cinnolin-4-yl]piperidin-4-amine], the EC50 was 100 to 1000 nM.

In turn, `Cc1cc(F)cc(-c2nnc3cc(Cl)c(-c4cccc5[nH]c(=O)[nH]c45)cc3c2N2CCC(N)CC2)c1` [1-9, 4-[4-(4-aminopiperidin-1-yl)-7-chloro-3-(3-fluoro-5-methylphenyl)cinnolin-6-yl]-2,3-dihydro-1H-1,3-benzodiazol-2-one] had an EC50 of 10 to 100 nM.

For the compound `Cc1cc(F)cc(-c2ccc3nnc(-c4cc(F)cc(C(N)=O)c4)c(N4CCC(N)CC4)c3c2)c1` [1-15, 3-[4-(4-aminopiperidin-1-yl)-6-(3-fluoro-5-methylphenyl)cinnolin-3-yl]-5-fluorobenzamide], the EC50 was in the range of 10 to 100 nM.

`N#Cc1cccc(-c2ccc3nnc(-c4cc(F)cc(F)c4)c(N4CCC(N)CC4)c3c2)c1O` [1-20, 3-[4-(4-aminopiperidin-1-yl)-3-(3,5-difluorophenyl)cinnolin-6-yl]-2-hydroxybenzonitrile]: the EC50 fell in the range of 10 to 100 nM.

Staying with this assay, now noted: CHO-K1 cells stably expressing human SSTR2; NKH477-stimulated cAMP; read-out: EC50 (inhibition of cAMP activities via human SST2R).
For `Oc1cccnc1-c1ccc2ncc(-c3cc(F)cc(F)c3)c(N3CC[C@H]4NCCO[C@@H]4C3)c2c1` (relative stereo) [2-263, 2-{4-[trans-octahydro-1H-pyrido[3,4-b]morpholin-6-yl]-3-(3,5-difluorophenyl)quinolin-6-yl}pyridin-3-ol], the 50% effective concentration (EC50) is under 10 nM.

As for `Nc1cc(F)cnc1-c1ccc2ncc(-c3cc(F)cc(F)c3)c(N3CC[C@H]4NCCO[C@@H]4C3)c2c1` (relative stereo) [2-265, 2-{4-[trans-octahydro-1H-pyrido[3,4-b]morpholin-6-yl]-3-(3,5-difluorophenyl)quinolin-6-yl}-5-fluoropyridin-3-amine], the 50% effective concentration (EC50) was under 10 nM.

On to `CON=Cc1cncc(-c2ccc3ncc(-c4cc(F)cc(F)c4)c(N4CC[C@H]5NCCO[C@@H]5C4)c3c2)c1N` (relative stereo) [2-266], for which the EC50 is under 10 nM.

On to `Nc1c(-c2ccc3ncc(-c4cc(F)cc(F)c4)c(N4CC[C@H]5NCCO[C@@H]5C4)c3c2)cncc1C1CC1` (relative stereo) [2-267, 3-{4-[trans-octahydro-1H-pyrido[3,4-b]morpholin-6-yl]-3-(3,5-difluorophenyl)quinolin-6-yl}-5-cyclopropylpyridin-4-amine], for which the EC50 lay within 10 to 100 nM.

On to `Nc1c(-c2ccc3ncc(-c4cc(F)cc(F)c4)c(N4CC[C@H]5NCCO[C@@H]5C4)c3c2)cnn1C1COC1` (relative stereo) [2-268, 4-{4-[trans-octahydro-1H-pyrido[3,4-b]morpholin-6-yl]-3-(3,5-difluorophenyl)quinolin-6-yl}-1-(oxetan-3-yl)-1H-pyrazol-5-amine], for which the EC50 was 10 to 100 nM.

As for `CC#Cc1cncc(-c2ccc3ncc(-c4cc(F)cc(F)c4)c(N4CC[C@H]5NCCO[C@@H]5C4)c3c2)c1N` (relative stereo) [2-272, 3-{4-[trans-octahydro-1H-pyrido[3,4-b]morpholin-6-yl]-3-(3,5-difluorophenyl)quinolin-6-yl}-5-(prop-1-yn-1-yl)pyridin-4-amine], the EC50 was under 10 nM.

Turning to `C#Cc1cncc(-c2ccc3ncc(-c4cc(F)cc(F)c4)c(N4CC[C@H]5OCCN[C@@H]5C4)c3c2)c1N` (relative stereo) [2-274, 3-{4-[trans-octahydro-1H-pyrido[3,4-b]morpholin-6-yl]-3-(3,5-difluorophenyl)quinolin-6-yl}-5-ethynylpyridin-4-amine], the EC50 was under 10 nM.

Regarding `Nc1c(Cl)ccnc1-c1ccc2ncc(-c3cc(F)cc(F)c3)c(N3CC[C@H]4NCCO[C@@H]4C3)c2c1` (relative stereo) [2-275, 2-{4-[trans-octahydro-1H-pyrido[3,4-b]morpholin-6-yl]-3-(3,5-difluorophenyl)quinolin-6-yl}-4-chloropyridin-3-amine], the EC50 is under 10 nM.

Take `Nc1cccnc1-c1ccc2ncc(-c3cc(F)cc(F)c3)c(N3CC[C@H]4NCCO[C@@H]4C3)c2c1` (relative stereo) [2-283, 2-{4-[trans-octahydro-1H-pyrido[3,4-b]morpholin-6-yl]-3-(3,5-difluorophenyl)quinolin-6-yl}pyridin-3-amine]: the EC50 lay in the range of 10 to 100 nM.

As for `O=c1[nH]c2cc(-c3ccc4ncc(-c5cc(F)cc(F)c5)c(N5CC[C@H]6NCCO[C@@H]6C5)c4n3)cc(F)c2[nH]1` (relative stereo) [3-10, 6-{8-[trans-octahydro-1H-pyrido[3,4-b]morpholin-6-yl]-7-(3,5-difluorophenyl)-1,5-naphthyridin-2-yl}-4-fluoro-2,3-dihydro-1H-1,3-benzodiazol-2-one], the EC50 is under 10 nM.

Take `Cc1cc(C)cc(-c2nnc3cc(Cl)c(-c4cc(F)cc(C(N)=O)c4)cc3c2N2CCC(N)CC2)c1` [1-1, 3-[4-(4-aminopiperidin-1-yl)-7-chloro-3-(3,5-dimethylphenyl)cinnolin-6-yl]-5-fluorobenzamide]: the EC50 was under 10 nM.

As to `Cc1cc(C)cc(-c2nnc3cc(Cl)c(-c4cccc(C#N)c4O)cc3c2N2CCC(N)CC2)c1` [1-2, 3-[4-(4-aminopiperidin-1-yl)-7-chloro-3-(3,5-dimethylphenyl)cinnolin-6-yl]-2-hydroxybenzonitrile], the EC50 is under 10 nM.

Turning to `Cc1cc(F)cc(-c2nnc3cc(Cl)c(-c4cc(F)cc(C(N)=O)c4)cc3c2N2CCC(N)CC2)c1` [1-4, 3-[4-(4-aminopiperidin-1-yl)-7-chloro-3-(3-fluoro-5-methylphenyl)cinnolin-6-yl]-5-fluorobenzamide], the EC50 is under 10 nM.

In the case of `Cc1cc(F)cc(-c2nnc3cc(Cl)c(-c4cccc(C#N)c4O)cc3c2N2CCC(N)CC2)c1` [1-7, 3-[4-(4-aminopiperidin-1-yl)-7-chloro-3-(3-fluoro-5-methylphenyl)cinnolin-6-yl]-2-hydroxybenzonitrile], the EC50 was under 10 nM.

As for `Cc1cc(F)cc(-c2nnc3cc(Cl)c(-c4ccc5[nH]c(=O)[nH]c5c4)cc3c2N2CCC(N)CC2)c1` [1-8, 5-[4-(4-aminopiperidin-1-yl)-7-chloro-3-(3-fluoro-5-methylphenyl)cinnolin-6-yl]-2,3-dihydro-1H-1,3-benzodiazol-2-one], the EC50 was under 10 nM.

For `N#Cc1cccc(-c2cc3c(N4CCC(N)CC4)c(-c4cc(Cl)cc(Cl)c4)nnc3cc2Cl)c1O` [1-11, 3-[4-(4-aminopiperidin-1-yl)-7-chloro-3-(3,5-dichlorophenyl)cinnolin-6-yl]-2-hydroxybenzonitrile], the EC50 is under 10 nM.

On to `Cc1cc(Cl)cc(-c2nnc3cc(Cl)c(-c4cc(F)cc(C#N)c4O)cc3c2N2CCC(N)CC2)c1` [1-12, 3-[4-(4-aminopiperidin-1-yl)-7-chloro-3-(3-chloro-5-methylphenyl)cinnolin-6-yl]-5-fluoro-2-hydroxybenzonitrile], for which the EC50 was under 10 nM.

Consider `Cc1cc(F)cc(-c2nnc3ccc(-c4cc(F)cc(C(N)=O)c4)cc3c2N2CCC(N)CC2)c1` [1-13, 3-[4-(4-aminopiperidin-1-yl)-3-(3-fluoro-5-methylphenyl)cinnolin-6-yl]-5-fluorobenzamide], for which the EC50 was under 10 nM.

As to `NC(=O)c1cc(F)cc(-c2ccc3nnc(-c4cc(F)cc(F)c4)c(N4CCC(N)CC4)c3c2)c1` [1-14, 3-[4-(4-aminopiperidin-1-yl)-3-(3,5-difluorophenyl)cinnolin-6-yl]-5-fluorobenzamide], the half-maximal effective concentration (EC50) was under 10 nM.

For `Cc1cc(F)cc(-c2nnc3ccc(-c4ccc5[nH]c(=O)[nH]c5c4)cc3c2N2CCC(N)CC2)c1` [1-16, 5-[4-(4-aminopiperidin-1-yl)-3-(3-fluoro-5-methylphenyl)cinnolin-6-yl]-2,3-dihydro-1H-1,3-benzodiazol-2-one], the EC50 is under 10 nM.

On to `Cc1cc(F)cc(-c2nnc3ccc(-c4cccc(C#N)c4O)cc3c2N2CCC(N)CC2)c1` [1-17, 3-[4-(4-aminopiperidin-1-yl)-3-(3-fluoro-5-methylphenyl)cinnolin-6-yl]-2-hydroxybenzonitrile], for which the EC50 was under 10 nM.

On to `Cc1cc(Cl)cc(-c2nnc3ccc(-c4cccc(C#N)c4O)cc3c2N2CCC(N)CC2)c1` [1-18, 3-[4-(4-aminopiperidin-1-yl)-3-(3-chloro-5-methylphenyl)cinnolin-6-yl]-2-hydroxybenzonitrile], for which the EC50 is under 10 nM.

For `N#Cc1cccc(-c2ccc3nnc(-c4cc(F)cc(Cl)c4)c(N4CCC(N)CC4)c3c2)c1O` [1-19, 3-[4-(4-aminopiperidin-1-yl)-3-(3-chloro-5-fluorophenyl)cinnolin-6-yl]-2-hydroxybenzonitrile], the EC50 is under 10 nM.

For the compound `N#Cc1cccc(-c2ccc3nnc(-c4cc(Cl)cc(Cl)c4)c(N4CCC(N)CC4)c3c2)c1O` [1-21, 3-[4-(4-aminopiperidin-1-yl)-3-(3,5-dichlorophenyl)cinnolin-6-yl]-2-hydroxybenzonitrile], the half-maximal effective concentration (EC50) is under 10 nM.

In the case of `Cc1cc(Cl)cc(-c2nnc3ccc(-c4cc(F)cc(C#N)c4O)cc3c2N2CCC(N)CC2)c1` [1-22, 3-[4-(4-aminopiperidin-1-yl)-3-(3-chloro-5-methylphenyl)cinnolin-6-yl]-5-fluoro-2-hydroxybenzonitrile], the EC50 is under 10 nM.

Consider `Cc1cc(Cl)cc(-c2nnc3ccc(-c4cc(F)c5[nH]c(=O)[nH]c5c4)cc3c2N2CCC(N)CC2)c1` [1-23, 6-[4-(4-aminopiperidin-1-yl)-3-(3-chloro-5-methylphenyl)cinnolin-6-yl]-4-fluoro-2,3-dihydro-1H-1,3-benzodiazol-2-one], for which the EC50 was under 10 nM.

The EC50 is the concentration that produces a half-maximal response.
